According to patent US20130216631A1, “TARGETED PERFORMANCE OF HYPOHALITE COMPOSITIONS THEREOF” (The Clorox Company, priority 2012, published 2013):

Assay: Percentage of initial hypochlorite remaining over time after mixing oxidant and reductant
Format: physicochemical
Conditions: any pH below 12
From the text: The amount of available halogen oxidant in the composition may be determined by placing samples of the composition into about 50 milliliters of distilled water, followed by addition of about 10 milliliters of a 10 wt % solution of potassium iodide and addition of about 10 milliliters of a 10 volume % solution of sulfuric acid, the resulting mixture being well stirred. The resulting yellow to brown solution, whose color is the result of oxidation of […] (I^−) to molecular iodine (I2), is then volumetrically titrated to an essentially colorless endpoint by addition of standardized 0.1 Molar sodium thiosulfate (Na2S2O3) titrant. […] Stability results are then expressed by repeated assays over time using identically prepared samples resulting from the same composition, normalized to 100 percent representative of the starting available chlorine measured initially.
Alternatively, at lower concentrations of hypochlorite, generally below about 2,000 ppm or 0.2 wt %, spectroscopic measurement of the absorption of aqueous solutions may be used to monitor the concentration, and resulting changes, of the hypochlorous acid species in solution. […] By use of controls, the relative level of hypochlorite can then be monitored and calculated by measuring absorbance of solutions by means of a suitable instrument, such as a spectrophotometer. […]

## O=C(O)CN(CCN(CC(=O)O)CC(=O)O)CC(=O)O [EDTA, ethylene diamine tetra-acetic acid]
  reaction of reductant with hypochlorite (quench rate): reacts almost instantly
